According to PubChem BioAssay (NCI):
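Each compound was tested at five concentrations against cells in 96-well plates for 48 hours. Abbreviation: GI50, concentration required for 50% inhibition of growth. TGI is the concentration that stops growth completely.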

How the values were obtained:
Test in all cases: DTP human tumour cell line panel, 48 h
DMS 114 small cell lung = tested on: DMS 114 small cell lung
DMS 273 small cell lung = tested on: DMS 273 small cell lung
HCC-2998 colon = tested on: HCC-2998 colon
HCT-116 colon = tested on: HCT-116 colon
M14 melanoma = tested on: M14 melanoma
M19-MEL melanoma = tested on: M19-MEL melanoma
RPMI-8226 leukemia = tested on: RPMI-8226 leukemia
SF-539 CNS = tested on: SF-539 CNS
UACC-257 melanoma = tested on: UACC-257 melanoma
PC-3 prostate = tested on: PC-3 prostate

Structure (SMILES) | TGI (DMS 114 small cell lung) | TGI (DMS 273 small cell lung) | TGI (HCC-2998 colon) | TGI (HCT-116 colon) | TGI (M14 melanoma) | TGI (M19-MEL melanoma) | TGI (RPMI-8226 leukemia) | TGI (SF-539 CNS) | TGI (UACC-257 melanoma) | GI50 (HCC-2998 colon) | GI50 (HCT-116 colon) | GI50 (M14 melanoma) | GI50 (PC-3 prostate) | TGI (PC-3 prostate) | GI50 (RPMI-8226 leukemia) | GI50 (SF-539 CNS) | GI50 (UACC-257 melanoma)
Cc1ccc(Sc2cc([N+](=O)[O-])cc(Sc3ccc(C)cc3)c2Sc2ccc(C)cc2)cc1 | > 100 µM | > 100 µM | > 100 µM | > 100 µM | > 100 µM | > 100 µM | > 100 µM | > 100 µM | > 100 µM |  |  |  |  |  |  |  | 
COc1ccc(/C=C\c2cc(OC)c(OC(C)=O)c(OC)c2)cc1 | 61.7 µM | > 100 µM | 36.7 µM | > 100 µM | 92.2 µM | > 100 µM | 85.7 µM | 14.9 µM | 95.1 µM |  |  |  |  |  |  |  | 
O=C1OC(/C=C/c2ccccc2)C(=O)C1=O (configuration not stated) |  | > 100 µM | > 100 µM |  | > 100 µM | > 100 µM | > 100 µM | > 100 µM | > 100 µM |  |  |  |  |  |  |  | 
O=C(c1ccccc1)C(c1ccccc1)C1(O)C(=O)Nc2ccc(Br)cc21 (configuration not stated) | 50.5 µM | > 100 µM | > 100 µM | > 100 µM | > 100 µM | 30.6 µM | 98.9 µM | > 100 µM | 53.8 µM |  |  |  |  |  |  |  | 
CCn1cc(C(=O)O)c(=O)c2cc(F)c(N3CCNCC3)nc21 | > 100 µM | > 100 µM | > 100 µM | > 100 µM | > 100 µM | > 100 µM | > 100 µM | > 100 µM | > 100 µM |  |  |  |  |  |  |  | 
CC(=O)c1ccc(-c2ccc(C(C)=O)s2)s1 | 2.76 µM | > 100 µM | > 100 µM | > 100 µM | > 100 µM | > 100 µM | > 100 µM | > 100 µM | > 100 µM |  |  |  |  |  |  |  | 
O=C1C2Cc3ccccc3CN2C(=O)N1CCN1CCOCC1 (configuration not stated) | > 100 µM | > 100 µM | > 100 µM |  | > 100 µM | > 100 µM | > 100 µM | > 100 µM |  |  |  |  |  |  |  |  | 
COc1ccc2c(c1)[n+](=O)c(C(=O)C/C(=N\NC(=O)C[N+](C)(C)C)C(=O)Nc1cc(Cl)ccc1Cl)c(C)n2O |  | > 100 µM | > 100 µM | > 100 µM | > 100 µM | > 100 µM | > 100 µM | > 100 µM | > 100 µM |  |  |  |  |  |  |  | 
Cn1c(=O)ccc2cc(C(=O)c3ccccc3)ccc21 | 81.1 µM | > 100 µM | > 100 µM | > 100 µM | > 100 µM | > 100 µM | > 100 µM | > 100 µM |  |  |  |  |  |  |  |  | 
C=C1[C@@H]2CCC(C)(C)[C@H]1CCC(=O)[C@@H]2C(=O)OC | > 100 µM | > 100 µM | > 100 µM | > 100 µM | > 100 µM | > 100 µM | > 100 µM | > 100 µM | > 100 µM |  |  |  |  |  |  |  | 
CCN(CC)[C@@H]1c2cc3c(cc2C(c2cc(OC)c(O)c(OC)c2)C2C(=O)CO[C@@H]21)OCO3 (some centres not stated) | > 100 µM | > 100 µM | > 100 µM | > 100 µM | > 100 µM | > 100 µM | > 100 µM | > 100 µM | > 100 µM |  |  |  |  |  |  |  | 
C[C@]12CC[C@H](O)CC1CCC[C@@H]2O (some centres not stated) | > 100 µM | > 100 µM | > 100 µM | > 100 µM | > 100 µM |  | > 100 µM | > 100 µM | > 100 µM |  |  |  |  |  |  |  | 
CC1(C)OC(=O)C(c2ccsc2)C(=O)O1 | > 100 µM | > 100 µM | > 100 µM | > 100 µM | > 100 µM | > 100 µM | > 100 µM | > 100 µM | > 100 µM |  |  |  |  |  |  |  | 
O=c1c2ccc(Br)cc2nc(-c2ccccc2)n1NC1OC(CO)C(O)C(O)C1O (configuration not stated) | > 100 µM | > 100 µM | > 100 µM | > 100 µM | > 100 µM | > 100 µM | > 100 µM | > 100 µM | > 100 µM |  |  |  |  |  |  |  | 
Fc1cccc(C2SCc3nc4ccccc4n32)c1 (configuration not stated) | > 100 µM | > 100 µM | > 100 µM | > 100 µM |  | > 100 µM | > 100 µM | > 100 µM | 69.1 µM |  |  |  |  |  |  |  | 
Nc1c(-c2ccc(-c3c(N)[n+]([O-])c4ccccc4[n+]3[O-])cc2)[n+]([O-])c2ccccc2[n+]1[O-] | 16.3 µM | 31.7 µM | 29.6 µM |  | 35.1 µM | 36.2 µM | > 100 µM | 18.2 µM | 13.8 µM |  |  |  |  |  |  |  | 
CC(=O)Oc1cc(OC(C)=O)c(OC(C)=O)c2c1CC1C(=O)C3(CCc4ccccc43)C(=O)C1C2 (configuration not stated) | 29.4 µM | 34.9 µM | 25.2 µM |  | > 100 µM | 30.1 µM | 13.1 µM |  |  |  |  |  |  |  |  |  | 
COc1ccc2c(c1)cn1c3ccc(OC)cc3[nH]c(=O)c21 |  |  | 0.0679 µM | 1.05 µM | 1.4 µM |  | 0.0984 µM | < 0.028 µM | 29.5 µM | < 0.0188 µM | < 0.0157 µM | 0.027 µM | < 0.0154 µM | 1.59 µM | 0.0253 µM | < 0.0159 µM | 14.6 µM
COc1ccccc1NC(=O)C(=O)C(C#N)CC(C)(C)C=O (configuration not stated) |  |  | > 100 µM | > 100 µM | > 100 µM |  | > 100 µM | > 100 µM | > 100 µM |  |  |  |  | > 100 µM |  |  | 
COc1cc(-c2nc3cc(Cl)c(Cl)cc3[nH]2)ccc1OCC(=O)N=Nc1c(O)[nH]c2ccccc12 |  |  | 1.43 µM | 1.55 µM | 1.33 µM |  | 3.35 µM | 2.29 µM | 3.67 µM | 0.419 µM | 0.445 µM | 0.328 µM | 0.533 µM | 2.07 µM | 0.645 µM | 1.08 µM | 1.32 µM
O=C1OC(=O)C2C1C1(c3ccccc3)OC2(c2ccccc2)c2c(Br)c(Br)c(Br)c(Br)c21 (configuration not stated) | > 100 µM | > 100 µM |  | > 100 µM | > 100 µM | > 100 µM | > 100 µM | > 100 µM | > 100 µM |  |  |  |  |  |  |  | 
COc1cc2c(cc1OC)-c1c(c3ccc([N+](=O)[O-])cc3c(=O)n1CCCBr)C2=O |  |  | > 100 µM | > 100 µM | 26.7 µM |  | > 100 µM | > 100 µM | > 100 µM | 59.7 µM | 4.31 µM | 2.39 µM | 59 µM | > 100 µM | 3.33 µM | 10.4 µM | 37.2 µM
CN(Cc1cccc(Cl)c1)c1ccc(CO)c(Cl)c1 |  |  | 34.1 µM | 11.3 µM | 49.3 µM |  | 55 µM | 38.7 µM | 2.15 µM | 13.7 µM | 0.481 µM | 17.5 µM | 18 µM | > 54.3 µM | 12.2 µM | 18.7 µM | 0.569 µM
